Laboratory results published in US20030180349A1, “Respiratory infection prevention and treatment with terpene-containing compositions” (priority 2001, published 2003).

Legend:
[1] = Solution levels of terpenes in water (no surfactant, high-shear blending); assay type: physicochemical; settings: for Solution levels for various terpenes: Level: maximum level solubilized in water without surfactant
[2] = Break down / loss of potency of terpenes in the presence of oxygen; assay type: physicochemical; settings: 500 ppm solution
Excerpt: Terpenes will break down in the presence of oxygen. Citral, for example, is an aldehyde and will decay (oxygenate) over a period of days.

Mycoplasma iowae = experiment: Effect of citral on growth of Mycoplasma iowae (color changing units); assay type: cell-based
Description: M. iowae is a known avian respiratory disease agent. […] Mycoplasma iowae were incubated at 37° C. in R2 (Chen, T. A., J. M. Wells, and C. H. Liao. 1982. Cultivation in vitro: spiroplasmas, plant mycoplasmas, and other fastidious, walled prokaryotes. pp. 417-446. in Phytopathogenic prokaryotes, V. 2, M. S. Mount and G. H. Lacy (ed.), Academic Press, New York) broth. One to 2-day old cultures were observed under a dark-field microscope to ensure cells were in filamentous form before treatment. Cell suspensions were vortexed to ensure they were evenly mixed before and an aliquot of 0.5 mL was dispensed into a sterile tube. […] The treated cell suspension was incubated for 24 hrs before the color changing units (CCUs) were determined by a 10-fold serial dilution in fresh R2. All treatments were duplicated. […] All culture tubes were incubated for 15 days before final readings were taken. A comparison was made of the effect of 24-hr and 48-hr treatment times. The CCUs were determined by taking treated cell suspension from the same treated tube 24 hrs or 48 hrs after treatment.

erythrocytes = assay type: cell-based, Human
Description: These mixtures were incubated for 20 minutes.

E. coli = settings: cited from earlier work
H. pylori = settings: cited from earlier work
Mycoplasma pneumoniae = experiment: In vitro effectiveness against Mycoplasma pneumoniae (color change); assay type: cell-based; settings: 40 hours treatment
Description: Terpene beta-ionone or L-carvone was first mixed well with Tween® 80 to have a final Tween® 80 concentration of 5%. This mixture was then used to make concentrations of 2500 ppm in sterile phosphate buffer saline (PBS) by blending the mixture in PBS for 40 seconds. This 2500 ppm solution was then diluted to 500 ppm, 250 ppm, and 125 ppm with PBS.
PBS containing 25 ppm Tween® 80 or PBS alone was used to treat cells suspension as controls.
A log phase (2-3-day old) culture of Mycoplasma pneumoniae was mixed with each of the above three concentrations of terpene at 1:1 (volume) ratio (in this case, 1 mL of cell suspension was added to 1 mL of terpene).
The culture and terpene mixture was then incubated at 37° C. for 40 hours. After 40 hours of treatment, 10-fold serial dilution was performed to 10 (−10) by first taking 0.1 mL of the treated culture suspension was added into 0.9 mL of fresh SP4 (Whitcomb (1983); SP4 media is commercially available (Remel, Lenexa, Kans., USA)). All the tubes were then incubated at 37° C., and a color change of the medium was used for the indication of the cells that either were killed or survived from the treatment. Color change was from red to yellow because Mycoplasma pneumoniae produces acid during its growth.

[3] = 62.5 ppm (5% Tween 80, PBS), three days after 10-fold dilution
[4] = 62.5 ppm, 6 days after 10-fold dilution
[5] = 125 ppm (5% Tween 80, PBS), three days after 10-fold dilution
[6] = 125 ppm, 6 days after 10-fold dilution
[7] = 250 ppm (5% Tween 80, PBS), three days after 10-fold dilution
[8] = 250 ppm, 6 days after 10-fold dilution

Compound	Solution levels for various terpenes: Level [1]	Concentration at which erythrocytes lyse (erythrocytes)	color change of medium / killing effect (Mycoplasma pneumoniae; [3])	color change of medium / killing effect (Mycoplasma pneumoniae; [4])	color change of medium / killing effect (Mycoplasma pneumoniae; [5])	color change of medium / killing effect (Mycoplasma pneumoniae; [6])	color change of medium / killing effect (Mycoplasma pneumoniae; [7])	color change of medium / killing effect (Mycoplasma pneumoniae; [8])	also measured
C=C(C)C1CC=C(C)C(=O)C1 (stereo not drawn) [Carvone]	500 ppm								
CC(C)=CCCC(C)=CC=O [Citral, 3,7-dimethyl-2,6-octadien-1-al]									stable suspension can be formed up to ([1]; suspension): about 2500 ppm; time in which solution loses half its potency [2]: 2-3 weeks; color changing units after treatment (Mycoplasma iowae; 62.5 ppm, 24 hr (Table 4)): 10^6 CCUs; color changing units after treatment (Mycoplasma iowae; 62.5 ppm, 24 hrs (Table 3)): 10^8 CCUs; color changing units after treatment (Mycoplasma iowae; 62.5 ppm, 48 hr (Table 4)): 10^6 CCUs; color changing units after treatment (Mycoplasma iowae; 125 ppm, 24 hr (Table 4)): 10^7 CCUs; color changing units after treatment (Mycoplasma iowae; 125 ppm, 24 hrs (Table 3)): 10^8 CCUs; color changing units after treatment (Mycoplasma iowae; 125 ppm, 48 hr (Table 4)): 10^6 CCUs; color changing units after treatment (Mycoplasma iowae; 250 ppm, 24 hr (Table 4)): 10^5 CCUs; color changing units after treatment (Mycoplasma iowae; 250 ppm, 24 hrs (Table 3)): 10^7 CCUs; color changing units after treatment (Mycoplasma iowae; 250 ppm, 48 hr (Table 4)): 10^4 CCUs; concentration that will lyse human erythrocytes (erythrocytes; human, 20 min): about 1000 ppm; citral concentration with bactericidal effect (E. coli): 0.08%; citral in growth media that reduced the concentration of E. coli (E. coli): more than 0.01%
CC(C)=CCC/C(C)=C/CO [Geraniol]	500 ppm								concentration that inhibited the growth of H. pylori in vitro (H. pylori): 2 mg/L
CC(=O)/C=C/C1=C(C)CCCC1(C)C [b-ionone]	500 ppm	2000 ppm	did not change color at all	only the first tube	did not change color at all	may have completely killed all cells	did not change color at all	may have completely killed all cells	
L-carvone		250 ppm	no killing effects	second and third tube	no killing effects	second and third tube	no killing effects	second and third tube	
Terpeniol	500 ppm								
